Six molecules from paper PMC9416111, “Synthesis and Biological Activity of Unsymmetrical Monoterpenylhetaryl Disulfides” (Molecules, 2022) can be followed below.

A word on the MIC: it is the least concentration at which growth counts as inhibited. By IC50 is commonly meant the concentration that gives 50% inhibition. The low end stands for greater potency, the high end for weaker potency. The melting point is the temperature, or range, at which the solid turns liquid.

Series [1] relates to S. aureus ATCC 29213 (MSSA). Put plainly: Antibacterial MIC, broth microdilution (EUCAST). The series is classed as cell-based, Staphylococcus aureus. The following applies: Staphylococcus aureus, 24 h, Mueller-Hinton broth. On the procedure:
(§1) Minimum inhibitory concentrations (MICs) of compounds was determined by the broth microdilution assay in 96-well plates (Eppendorf, Hamburg, Germany) according to the EUCAST rules for antimicrobial susceptibility testing in full Mueller-Hinton broth (MH). The concentrations of compounds to be tested ranged from 1 to 2048 µg/mL. The MIC was determined as the lowest concentration of an antibiotic for which no visible bacterial growth could be observed after 24 h of incubation.

Series [2] concerns S. aureus MRSA clinical isolate. Put plainly: Antibacterial MIC, broth microdilution (EUCAST). The series is classed as cell-based, Staphylococcus aureus. Conditions: Staphylococcus aureus, MRSA; 24 h, Mueller-Hinton broth. On the procedure:
as §1

For series [3], the system named is S. typhimurium TA98, TA100 and TA102 strains. Put plainly: Mutagenicity in the Ames test (spot-test). The series is classed as cell-based, Salmonella typhimurium. Conditions: strain in which mutagenicity was found; NF = not found. As to the method: The mutagenicity of compounds was evaluated in the Ames test with S. typhimurium TA98, TA100 and TA102 strains as described in [38]. The spot-test modification has been applied to avoid false-negative results driven with antibacterial activity of compounds. The tested compound was considered to be mutagenic if the number of revertant colonies increased more than 2 times close to the filter paper with compound.
(In general: In the Ames test, an excess of revertant colonies over the control signals mutagenicity.)

A short description of the next series: in vitro. Conditions: dog.
Series [4] is described as follows: Cytotoxicity, MTT on EBL cells. The following applies: bovine, EBL cells (embryonic bovine lung).
Description: (§3) Cytotoxicity of compounds was determined using the microtetrazolium test (MTT) on EBL cells. The cells were cultured in DMEM—Dulbecco’s Modified Eagle’s Medium (Sigma Aldrich, St. Louis, MO, USA) supplemented with 10% FBS, 2 mM L-glutamine, 100 µg/mL penicillin and 100 µg/mL streptomycin. Cells were seeded in 96-well plates with the density of 3000 cells per well and left overnight to allow for the attachment. Cells were next cultured at 37 °C and 5% CO2 in the presence of compounds of interest at various concentrations from 1.25 to 160 µg/mL. After 24 h of cultivation the cells were subjected to MTT-assay. The formazan was solubilized by DMSO and the optical density was measured on Tecan Infinite 200Pro at 570 nm. The concentration required to inhibit cellular dehydrogenase activity by 50% (CC50 value) was calculated by using GraphPad Prism 6.0 software (GraphPad software, San Diego, CA, USA).
Series [5] concerns red blood cells from laboratory mice. Put plainly: Erythrotoxicity (hemolytic activity). Type of series: cell-based. The following applies: 100 μM, 1, 3 and 5 h of incubation. On the procedure:
No significant hemolytic activity was detected at a concentration of 1 μM (Figure 3B).
(§2) To evaluate the erythrotoxicity, antioxidant and membrane-protective activity of the compounds, we used 0.5% (v/v) suspension of red blood cells from laboratory mice in phosphate-buffered saline (PBS, pH 7.4). The test substances were previously dissolved in ethanol. Erythrotoxicity (hemolytic activity) was evaluated by the degree of hemolysis of red blood cells 1–5 h after the introduction of solutions of the compounds. Membrane-protective and antioxidant activity was determined by the degree of inhibition of H2O2-induced hemolysis. For this purpose, 30 min after the erythrocyte suspension was added to the solutions of the test compounds, hemolysis was initiated with a solution of hydrogen peroxide (0.006%). Then, the reaction mixture was incubated in a thermostatic shaker Biosan ES-20 with slow stirring at 37 °C for 5 h. An aliquot was taken from the incubation medium every hour, centrifuged for 5 min (1600× g), and the degree of hemolysis was determined by the hemoglobin content in the supernatant on a ThermoSpectromic Genesys 20 spectrophotometer (Thermo Fisher Scientific, Waltham, MA, USA) at 524 nm. The percentage of hemolysis was calculated in relation to the complete hemolysis of the sample. Each experiment was designed with 4–8 replicates. Statistical data processing and charting were performed using the Microsoft Office Excel 2007 software package (Microsoft, Redmond, WA, USA). The data represent the mean ± SE.
Figure 3 Hemolytic activity of unsymmetrical disulfides at the concentration of 100 μM (A) and 1 μM (B) after 1, 3 and 5 h of incubation.

Series [6] relates to influenza virus A/Puerto Rico/8/34 (H1N1). Put plainly: Antiviral cell protection assay in MDCK cells. Type of series: cell-based. The following applies: H1N1, MDCK, 72 h.
For series [7], the system named is Candida albicans 703 clinical isolate. Description: Antifungal MIC, broth microdilution (CLSI M27-A3). Conditions: for MIC: Candida albicans, 24 h, read-out: MIC C. albicans 703 Clinical Isolate. A general note: Dilution methods test growth across graded concentrations, often in twofold steps.
The test system of the next series is P. aeruginosa ATCC 27853. Put plainly: Antibacterial MIC, broth microdilution (EUCAST). Type of series: cell-based, Pseudomonas aeruginosa. The following applies: for MIC: Pseudomonas aeruginosa, ATCC27853, 24 h, Mueller-Hinton broth. As to the method: as §1
Series [8] concerns EBL cells (embryonic bovine lung). Put plainly: Cytotoxicity, MTT on EBL cells.
Description: as §3
In series [9] the test system is red blood cells from laboratory mice. Description: Membrane-protective activity: H2O2-induced hemolysis of erythrocytes. Type of series: cell-based. Conditions: 1 μM, 1–5 h. On the procedure:
The membrane-protective properties of the compounds were evaluated in the model of oxidative hemolysis of erythrocytes at a concentration of 1 μM in order to avoid the effect of hemolytic activity.
as §2
Figure 4 Effect of unsymmetrical disulfides and Trolox (T) at a concentration of 1 μM on the level of H2O2-induced hemolysis of erythrocytes after 1–5 h of incubation.

Series [10] is described as follows: Antioxidant activity: inhibition of lipid peroxidation (TBA-RS) in brain homogenates. Details: species or system mice. The following applies: 100 μM and 1 mM, 1 h after initiation of LPO (ascorbate/Fe2+). As to the method: The antioxidant activity of monoterpenylhetaryl disulfides was evaluated for their in vitro ability to inhibit lipid peroxidation (LPO) processes in the brain lipids of laboratory mice. The brain was removed and homogenized (10%) in physiological saline (pH = 7.4) and centrifuged for 10 min. Then, an aliquot of the supernatant (S1) was taken, into which the test compounds were added as solutions in ethanol (final concentration of 100 μM and 1 mM). After 30 min, LPO was initiated by adding a freshly prepared solution of FeSO4 and ascorbic acid. Then, the test samples were incubated for one hour at 37 °C with slow stirring in a thermostatic Biosan ES-20 shaker (Biosan, Riga, Latvia). The concentration of LPO secondary products reacting with 2-thiobarbituric acid (thiobarbituric acid reactive substances, TBA-RS) was determined using ThermoSpectromic Genesys 20 spectrophotometer (Thermo Fisher Scientific, Waltham, MA, USA) at λ = 532 nm, the extinction coefficient 1.56 × 10^5 M^−1cm^−1 was used for calculations.
Figure 2 Effect of unsymmetrical disulfides and Trolox (T) at concentrations of 100 μM and 1 mM on the content of TBA-RS in the brain homogenate in an hour after the initiation of LPO (ascorbate/Fe^2+ initiators). C—control sample containing no test compounds; I—intact sample in which LPO was not initiated.

≈ marks a conversion by molar mass, not a printed value. Bounds are passed on as bounds.

`CC(C)[C@@H]1CC[C@@H](C)C[C@@H]1SSc1nc2ccccc2s1` [Compound 1a, 2-(((1S,2S,5R)-2-isopropyl-5-methylcyclohexyl)disulfanyl)benzo[d]thiazole]: the minimal inhibitory concentration (MIC) turned out to be 16 µg/mL (≈ 47.4 µM) in [1], 16 µg/mL (≈ 47.4 µM) in series [2], 512 µg/mL (≈ 1520 µM) in series [7] and 16 µg/mL (≈ 47.4 µM) against P. aeruginosa ATCC 27853. Besides, in series [3], the “Mutagenicity in the Ames Test” value is reported as “TA 100”. The molecule further displayed a CC50 in the series “in vitro” of 36 ± 3 µM. In series [4], this molecule registered a CC50 at 24 h of 11.7 µg/mL (≈ 34.7 µM). Besides, in series [5], the “hemolytic activity (erythrotoxicity), in words” value (“hemolytic activity” below) was “Low hemolytic activity”. Moreover, in series [6], it took 5 ± 1 µM to reach half-maximal inhibition (IC50).
`Cc1cc(C)nc(SS[C@H]2C[C@H](C)CC[C@H]2C(C)C)n1` [Compound 1b, 2-(((1S,2S,5R)-2-isopropyl-5-methylcyclohexyl)disulfanyl)-4,6-dimethylpyrimidine]: the minimum inhibitory concentration (MIC) in series [1] was found to be 16 µg/mL (≈ 51.5 µM); in series [2], 32 µg/mL (≈ 103 µM); in series [7], 512 µg/mL (≈ 1650 µM); with P. aeruginosa ATCC 27853, 32 µg/mL (≈ 103 µM). Moreover, in [3], the “Mutagenicity in the Ames Test” value is reported as “TA 102”. The molecule also came in with a CC50 in “in vitro” of 29 ± 2 µM. The same molecule came in with a CC50 at 24 h in [4] of 14 µg/mL (≈ 45.1 µM). Also, the concentration for half-maximal inhibition (IC50) in [6] came to 13 ± 2 µM.
With `CC1(C)[C@H]2CC[C@@H](CSSc3nc4ccccc4s3)[C@@H]1C2` [Compound 2a, 2-((((1S,2R,5S)-6,6-dimethylbicyclo [3.1.1]heptan-2-yl)methyl)disulfaneyl)benzo[d]thiazole], the MIC in series [1] turned out to be 128 µg/mL (≈ 381 µM); in series [2], 128 µg/mL (≈ 381 µM); in [7], 1020 µg/mL (≈ 3050 µM); with P. aeruginosa ATCC 27853, 64 µg/mL (≈ 191 µM). This molecule gave a CC50 in “in vitro” of 99 ± 5 µM. In [4], this molecule gave a CC50 at 24 h of 104 µg/mL (≈ 311 µM). Moreover, the “cytotoxicity on EBL cells, in words” value in series [8] is “least toxicity”. The “hemolytic activity” value in series [5] is given as “Low hemolytic activity”. Further, the concentration for half-maximal inhibition (IC50) in series [6] was 13 ± 3 µM. The “membrane-protective activity, in words” value in [9] was “most active”. In addition, the “activity against P. aeruginosa ATCC 27853, in words” value in the series with P. aeruginosa ATCC 27853 is recorded as “repressed the growth”.
As to `COC(=O)c1cccnc1SS[C@H]1C[C@H]2C[C@@H]([C@@H]1CO)C2(C)C` [Compound 3c, Methyl 2-(((1S,2R,3S,5R)-2-(hydroxymethyl)-6,6-dimethylbicyclo[3.1.1]hept-3-yl)disulfanyl)pyridine-3-carboxylate], the “antioxidant activity (inhibition of oxidation of brain lipids), in words” value in [10] is on record as “highest antioxidant activity”. In addition, the MIC in series [1] amounted to 64 µg/mL (≈ 181 µM); in series [2], 32 µg/mL (≈ 90.5 µM); in [7] it was 1020 µg/mL (≈ 2900 µM); against P. aeruginosa ATCC 27853 it was 1020 µg/mL (≈ 2900 µM). The molecule also came in with a CC50 in “in vitro” greater than 283 µM. In series [4], the CC50 at 24 h turned out to be 8.1 µg/mL (≈ 22.9 µM). In [6], the IC50 came to 255 ± 31 µM. Also, the “membrane-protective activity, in words” value in series [9] is given as “most active”.
For the molecule `CC1(C)[C@H]2C[C@H](SSc3ncccc3C(=O)O)[C@@H](CO)[C@@H]1C2` [Compound 3d, 2-(((1S,2R,3S,5R)-2-(hydroxymethyl)-6,6-dimethylbicyclo[3.1.1]heptan-3-yl)disulfanyl)nicotinic acid], the melting point turned out to be 99 °C. Besides, in series [1], the lowest concentration to inhibit growth (MIC) was 512 µg/mL (≈ 1510 µM). The same molecule had an MIC in series [2] of 1020 µg/mL (≈ 3020 µM). In the series “in vitro”, the CC50 amounted to 285 ± 14 µM. In series [4], this molecule showed a CC50 at 24 h of 118 µg/mL (≈ 347 µM). For the same molecule, the “cytotoxicity on EBL cells, in words” value in series [8] is listed as “least toxicity”. The “hemolytic activity” value in [5] was “Low hemolytic activity”. Also, 132 ± 16 µM corresponded to half-maximal inhibition in [6] (IC50). Also, in [7], the “antifungal activity against Candida albicans 703, in words” value is “active against yeast” and the MIC was 32 µg/mL (≈ 94.3 µM). In addition, the minimum inhibitory concentration (MIC) in the series with P. aeruginosa ATCC 27853 was 1020 µg/mL (≈ 3020 µM).
Regarding `COC(=O)c1cccnc1SSC[C@@H]1[C@@H](O)C[C@H]2C[C@@H]1C2(C)C` [Compound 4c, Methyl 2-((((1S,2S,3S,5R)-3-hydroxy-6,6-dimethylbicyclo[3.1.1]heptan-2-yl)methyl)disulfanyl)pyridine-3-carboxylate], the “antioxidant activity (inhibition of oxidation of brain lipids), in words” value in series [10] is listed as “highest antioxidant activity”. In addition, the minimum inhibitory concentration (MIC) is 1020 µg/mL (≈ 2900 µM) in series [1], greater than 1020 µg/mL in [2], 1020 µg/mL (≈ 2900 µM) in [7] and greater than 1020 µg/mL in the series with P. aeruginosa ATCC 27853. In “in vitro”, this molecule yielded a CC50 of 40 ± 2 µM. It took 34 ± 4 µM to reach half-maximal inhibition in series [6] (IC50). Further, the “membrane-protective activity, in words” value in series [9] is “most active”.
